US5661167A, “Prolyl endopeptidase inhibitors” (Merrell Pharmaceuticals Inc., priority 1996, dated 1997)
pKi: −log10 of the molar value.

target: T1, Prolyl endopeptidase (Bos taurus, UniProt Q9XTA2); assay: Prolyl endopeptidase enzyme inhibition assay (CBz-Gly-Pro-p-nitroanilide substrate, absorbance at 410 nm); assay type: biochemical; conditions: prolyl endopeptidase partially purified from bovine brain, buffer A (50 mM HEPES pH 7.4, 1 mM EDTA, 1 mM DTT), 37° C., [S]=50 μM, KM 11 μM, read-out: ENZYME INHIBITION (enzyme inhibition constant, Ki)
T1 construct: Prolyl endopeptidase was partially purified from bovine brain; from tissue; host or cells: bovine brain
T1 sequence (Q9XTA2 1-710): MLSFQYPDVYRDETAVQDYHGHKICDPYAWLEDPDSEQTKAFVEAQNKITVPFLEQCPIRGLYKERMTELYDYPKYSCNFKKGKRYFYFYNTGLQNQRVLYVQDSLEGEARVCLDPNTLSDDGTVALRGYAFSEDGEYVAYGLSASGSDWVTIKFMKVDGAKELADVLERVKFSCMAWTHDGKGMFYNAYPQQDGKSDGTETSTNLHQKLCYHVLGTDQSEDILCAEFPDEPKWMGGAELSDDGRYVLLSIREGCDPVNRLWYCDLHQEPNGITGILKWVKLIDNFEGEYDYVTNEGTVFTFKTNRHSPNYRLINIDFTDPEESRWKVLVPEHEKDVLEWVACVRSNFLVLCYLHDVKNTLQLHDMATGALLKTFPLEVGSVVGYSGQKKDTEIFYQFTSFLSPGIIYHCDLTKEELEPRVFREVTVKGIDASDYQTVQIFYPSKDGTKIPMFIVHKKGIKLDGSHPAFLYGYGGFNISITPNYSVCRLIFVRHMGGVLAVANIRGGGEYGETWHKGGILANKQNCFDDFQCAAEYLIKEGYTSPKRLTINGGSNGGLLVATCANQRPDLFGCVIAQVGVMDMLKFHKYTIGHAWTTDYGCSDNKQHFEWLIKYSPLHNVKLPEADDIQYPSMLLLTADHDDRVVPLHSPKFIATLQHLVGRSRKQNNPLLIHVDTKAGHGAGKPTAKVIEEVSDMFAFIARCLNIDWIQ
Description: Prolyl endopeptidase was partially purified from bovine brain essentially as described by Yoshimoto et al. (Biochem., 94, 1179 (1983)) except that 50 mM HEPES, pH 7.4, was used instead of Tris buffer. This enzyme preparation is suitable for routine inhibition measurements; however, the enzyme may be further purified as described below. The state of purity of the enzyme is not expected to effect the measured Ki. The pellet from the 50%-80% ammonium sulfate cut is redissolved in the homogenization buffer and desalted by passage through a Pharmacia Mono Q column (0.5×5 cm) at 1 ml/min and the column is washed with 5 ml of buffer A to buffer B (total 20 ml; buffer A=50 mM HEPES, pH 7.4, 1 mM EDTA and 1 mM DTT; buffer B=buffer A+0.5M NaCl). Enzyme activity elutes at about [NaCl]=0.25M.
The enzyme is assayed in buffer A (3.0 ml) at 37° C. containing 20 μM substrate (CBz-Gly-Pro-p-nitroanilide). The increase in absorbance at 410 nm is monitored (410 nm =8.4 mM^-1 cm^-1). Inhibitor stock solutions are made in DMSO. To characterize reversible competitive inhibitors, the initial rates in the presence of three inhibitor concentrations are measured using [S]=50 μM (KM for the substrate is 11 μM). If slow binding is observed, the final equilibrium rates are used.
The Ki for a competitive inhibitor is calculated using known formulas: vo /vi =(1+[I]/Ki, app) and Ki =Ki, app/(1+[S]/KM), where vo is the initial rate in the absence of inhibitor, vi is the initial rate in the presence of inhibitor at the concentration [I], and [S] is the substrate concentration. If "slow binding" is observed (i.e. if the approach to the binding equilibrium is slow), the final steady-state rate rather than the initial rate is taken as vi.
Enzyme inhibition constants were found using the described methods for various compounds of formula 1.

Row | pKi | Structure (SMILES)
1 | 8.85 | O=C(OCc1ccccc1)N1CCCC1C(=O)N1CCCC1C(=O)C(F)(F)C(F)(F)F (stereo not drawn) [EXAMPLE I, 2-[[2-(2,2,3,3,3-pentafluoro-1-oxopropyl)-1-pyrrolidinyl]carbonyl]-1-pyrrolidinecarboxylic acid, phenylmethyl ester]
2 | 9.00 | O=C(OCc1ccccc1)N1CSCC1C(=O)N1CCCC1C(=O)C(F)(F)C(F)(F)F (stereo not drawn) [EXAMPLE II, 4-[[2-(2,2,3,3,3-pentafluoro-1-oxopropyl)-1-pyrrolidinyl]carbonyl]-3-thiazolidinecarboxylic acid, phenylmethyl ester]
3 | 9.00 | CC(C)(C)OC(=O)N1CSCC1C(=O)N1CSCC1C(=O)C(F)(F)C(F)(F)F (stereo not drawn) [EXAMPLE IV, 4-[[4-(2,2,3,3,3-pentafluoro-1-oxopropyl)-3-thiazolidinyl]carbonyl]-3-thiazolidinecarboxylic acid, 1,1-dimethylethyl ester]
